Experimental data published in ChEMBL document CHEMBL1201862, “PubChem BioAssay data set” (2004).
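Tested at 5 concentrations; 48 h exposure; 96-well plates; endpoints linearly interpolated, else capped at highest concentration. GI50 = concentration required for 50% inhibition of growth.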 The source made the active and inactive calls. No stated cut-off is given here; in the data, active = GI50 up to about 1.1 µM and inactive = higher.

What was measured:
Assay in all cases: NCI anticancer screen, dose series, 48 h
RPMI-8226 = tested on: RPMI-8226
786-0 = tested on: 786-0
SK-MEL-2 = tested on: SK-MEL-2
HT-29 = tested on: HT-29
A549 = tested on: A549
RXF 393 = tested on: RXF 393
NCI-H23 = tested on: NCI-H23
LOX IMVI = tested on: LOX IMVI
COLO 205 = tested on: COLO 205
OVCAR-3 = tested on: OVCAR-3
TK-10 = tested on: TK-10
HOP-62 = tested on: HOP-62
SF-539 = tested on: SF-539
IGROV-1 = tested on: IGROV-1
NCI-H460 = tested on: NCI-H460
ACHN = tested on: ACHN
HCT-116 = tested on: HCT-116
NCI-H226 = tested on: NCI-H226

Measured: GI50

COC(=O)CCC1CCc2c(OC)ccc(OC)c2C1=O (stereo unspecified)
inactive: RPMI-8226 > 100 µM | 786-0 > 100 µM | SK-MEL-2 > 100 µM | HT-29 > 100 µM | A549 > 100 µM | RXF 393 > 100 µM | NCI-H23 > 100 µM | LOX IMVI > 100 µM | COLO 205 > 100 µM | OVCAR-3 > 100 µM | TK-10 > 100 µM | HOP-62 > 100 µM | SF-539 > 100 µM | IGROV-1 > 100 µM | NCI-H460 > 100 µM | ACHN > 100 µM

CSC1CC2C(CC1(C)O)C2(C)C (stereo unspecified)
inactive: RPMI-8226 > 100 µM | 786-0 > 100 µM | SK-MEL-2 > 100 µM | HT-29 > 100 µM | A549 > 100 µM | NCI-H23 > 100 µM | HCT-116 > 100 µM | LOX IMVI 95.5 µM | COLO 205 > 100 µM | TK-10 > 100 µM | HOP-62 > 100 µM | SF-539 > 100 µM | IGROV-1 > 100 µM | NCI-H460 > 100 µM | ACHN > 100 µM

Cc1nc2ccccc2c(=O)n1NC(=S)Nc1cccc(Cl)c1
inactive: RPMI-8226 > 100 µM | 786-0 > 100 µM | SK-MEL-2 > 100 µM | HT-29 > 100 µM | A549 > 100 µM | RXF 393 > 100 µM | NCI-H23 > 100 µM | HCT-116 > 100 µM | LOX IMVI 65.5 µM | COLO 205 > 100 µM | TK-10 > 100 µM | HOP-62 > 100 µM | SF-539 > 100 µM | IGROV-1 > 100 µM | NCI-H460 > 100 µM | ACHN > 100 µM | NCI-H226 > 100 µM

CC1=N/C(=C\c2c(O)ccc3ccccc23)C(=O)O1
inactive: RPMI-8226 > 100 µM | 786-0 > 100 µM | SK-MEL-2 > 100 µM | HT-29 > 100 µM | A549 > 100 µM | RXF 393 > 100 µM | NCI-H23 > 100 µM | HCT-116 > 100 µM | COLO 205 > 100 µM | HOP-62 > 100 µM | SF-539 > 100 µM | IGROV-1 > 100 µM | NCI-H460 > 100 µM | ACHN > 100 µM

[N-]=[N+]=NC1C2CC3CC(C2)CC1C3 (stereo unspecified)
inactive: RPMI-8226 > 100 µM | 786-0 > 100 µM | SK-MEL-2 > 100 µM | HT-29 > 100 µM | A549 > 100 µM | NCI-H23 > 100 µM | HCT-116 > 100 µM | LOX IMVI > 100 µM | COLO 205 > 100 µM | OVCAR-3 > 100 µM | TK-10 > 100 µM | HOP-62 > 100 µM | SF-539 > 100 µM | IGROV-1 > 100 µM | NCI-H460 > 100 µM | ACHN > 100 µM | NCI-H226 > 100 µM

O=C(Nc1ccc(S(=O)(=O)N[C@@H](C(=O)O)c2ccccc2)cc1)c1ccc(F)cc1
inactive: RPMI-8226 > 100 µM | 786-0 > 100 µM | SK-MEL-2 > 100 µM | HT-29 > 100 µM | A549 > 100 µM | RXF 393 > 100 µM | NCI-H23 > 100 µM | LOX IMVI > 100 µM | COLO 205 > 100 µM | OVCAR-3 > 100 µM | TK-10 > 100 µM | SF-539 > 100 µM | IGROV-1 > 100 µM | NCI-H460 > 100 µM | ACHN > 100 µM

O/N=C/c1cc2c(cc1Br)OCO2
inactive: RPMI-8226 > 100 µM | 786-0 > 100 µM | SK-MEL-2 > 100 µM | HT-29 > 100 µM | A549 > 100 µM | NCI-H23 > 100 µM | HCT-116 > 100 µM | LOX IMVI > 100 µM | COLO 205 > 100 µM | OVCAR-3 > 100 µM | TK-10 > 100 µM | HOP-62 > 100 µM | SF-539 > 100 µM | IGROV-1 > 100 µM | NCI-H460 > 100 µM | ACHN > 100 µM | NCI-H226 > 100 µM

Cc1ccccc1C(C#N)/C(=N/NC(N)=S)C(=O)Nc1c(C)cccc1C (stereo unspecified)
inactive: RPMI-8226 9.12 µM | 786-0 > 100 µM | SK-MEL-2 > 100 µM | HT-29 > 100 µM | A549 75.9 µM | RXF 393 > 100 µM | NCI-H23 > 100 µM | HCT-116 > 100 µM | LOX IMVI > 100 µM | COLO 205 > 100 µM | OVCAR-3 > 100 µM | TK-10 > 100 µM | HOP-62 > 100 µM | IGROV-1 > 100 µM | NCI-H460 > 100 µM | ACHN > 100 µM | NCI-H226 > 100 µM

CC(c1ccccc1)N1CC(C)(c2ccccc2)N(O)C(c2ccccc2)C1C (stereo unspecified)
inactive: RPMI-8226 3.75 µM | 786-0 5.92 µM | SK-MEL-2 5.42 µM | HT-29 23.4 µM | A549 7.01 µM | RXF 393 4.41 µM | NCI-H23 8.04 µM | HCT-116 3.38 µM | LOX IMVI 12.2 µM | COLO 205 11.1 µM | OVCAR-3 11.6 µM | TK-10 17.1 µM | HOP-62 15.5 µM | SF-539 5.73 µM | IGROV-1 7.45 µM | NCI-H460 7.29 µM | ACHN 3.59 µM

Clc1ccc(OCCSCCCCCCCCCCSCCOc2ccc(Cl)cc2)cc1
inactive: RPMI-8226 > 100 µM | 786-0 > 100 µM | SK-MEL-2 > 100 µM | HT-29 > 100 µM | A549 > 100 µM | RXF 393 > 100 µM | NCI-H23 > 100 µM | LOX IMVI > 100 µM | COLO 205 > 100 µM | OVCAR-3 > 100 µM | TK-10 > 100 µM | HOP-62 > 100 µM | SF-539 > 100 µM | IGROV-1 > 100 µM | NCI-H460 > 100 µM | ACHN > 100 µM | NCI-H226 > 100 µM

Cc1cc2c(=O)cc(-c3ccc(C(F)(F)F)cc3)oc2c(C(=O)O)c1C
inactive: RPMI-8226 > 100 µM | 786-0 > 100 µM | SK-MEL-2 > 100 µM | HT-29 > 100 µM | A549 > 100 µM | RXF 393 > 100 µM | NCI-H23 > 100 µM | HCT-116 > 100 µM | LOX IMVI > 100 µM | COLO 205 > 100 µM | OVCAR-3 > 100 µM | TK-10 > 100 µM | SF-539 > 100 µM | IGROV-1 > 100 µM | NCI-H460 > 100 µM | ACHN > 100 µM | NCI-H226 > 100 µM

Oc1cc(-c2ccccn2)nc2ccc(Cl)cc12
inactive: RPMI-8226 18.2 µM | 786-0 72.9 µM | HT-29 33 µM | NCI-H23 29.5 µM | LOX IMVI 30.8 µM | COLO 205 36.6 µM | TK-10 95.7 µM | HOP-62 40.3 µM | SF-539 31.8 µM | IGROV-1 64.1 µM | NCI-H460 38.1 µM | ACHN 58.6 µM
